Data: ChEMBL document CHEMBL1177720, “Selective hexapeptide agonists and antagonists for human complement C3a receptor” (J Med Chem, 2010)
The source made the active and inactive calls. The rule behind the calls is not given here.

Assays:
Homo sapiens = organism: Homo sapiens; experiment: Selectivity for human C3a receptor over human C5a receptor
[1] = biological target: T1, C5a anaphylatoxin chemotactic receptor 1 (Homo sapiens) (UniProt P21730); experiment: Displacement of […] from C5a receptor in human PBMC at 1 mM by scintillation counting
T1 sequence (whole entry): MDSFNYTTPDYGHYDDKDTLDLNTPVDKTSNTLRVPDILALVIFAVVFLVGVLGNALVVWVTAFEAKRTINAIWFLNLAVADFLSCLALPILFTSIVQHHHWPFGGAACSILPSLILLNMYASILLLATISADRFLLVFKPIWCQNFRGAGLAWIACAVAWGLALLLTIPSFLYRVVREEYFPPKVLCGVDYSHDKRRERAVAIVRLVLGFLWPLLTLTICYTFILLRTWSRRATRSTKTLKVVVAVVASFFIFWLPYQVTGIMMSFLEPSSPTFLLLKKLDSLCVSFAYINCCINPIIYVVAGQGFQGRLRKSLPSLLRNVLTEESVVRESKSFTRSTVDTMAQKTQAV

[2] = biological target: T2, C3a anaphylatoxin chemotactic receptor (Homo sapiens, UniProt Q16581); experiment: Antagonist activity at human C3a receptor in human U937 cells assessed as inhibition of intracellular calcium mobilization; format: functional, cell-based, U-937
T2 sequence (Q16581 whole entry): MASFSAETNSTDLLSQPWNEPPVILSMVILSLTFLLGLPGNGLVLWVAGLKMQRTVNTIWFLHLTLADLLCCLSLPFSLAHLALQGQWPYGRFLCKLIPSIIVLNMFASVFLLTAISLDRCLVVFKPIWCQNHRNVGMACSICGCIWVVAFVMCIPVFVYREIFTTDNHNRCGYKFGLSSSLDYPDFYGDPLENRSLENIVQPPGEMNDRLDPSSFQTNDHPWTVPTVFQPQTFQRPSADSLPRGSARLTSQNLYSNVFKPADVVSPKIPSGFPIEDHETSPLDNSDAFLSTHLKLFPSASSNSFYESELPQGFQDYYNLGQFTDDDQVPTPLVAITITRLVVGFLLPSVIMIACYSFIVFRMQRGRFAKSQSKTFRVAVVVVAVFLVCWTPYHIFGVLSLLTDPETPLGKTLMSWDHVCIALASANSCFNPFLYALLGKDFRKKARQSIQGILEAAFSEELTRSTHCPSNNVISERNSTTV

[3] = biological target: T2, C3a anaphylatoxin chemotactic receptor; experiment: Displacement of [125I-C3a] from C3a receptor in human PBMC by scintillation counting; conditions: read-out: IC50
[4] = biological target: T3, C3a anaphylatoxin chemotactic receptor (Homo sapiens) (UniProt Q16581); experiment: Agonist activity at human C3a receptor in human U937 cells assessed as induction of intracellular calcium release at 100 uM; format: functional, cell-based; conditions: U-937
T3 sequence (whole entry): T2 sequence (Q16581 whole entry)

[5] = biological target: T3, C3a anaphylatoxin chemotactic receptor (Homo sapiens); experiment: Agonist activity at human C3a receptor in human U937 cells assessed as induction of intracellular calcium release at 1 mM; format: functional, cell-based; conditions: U-937
[6] = biological target: T3, C3a anaphylatoxin chemotactic receptor (Homo sapiens); experiment: Agonist activity at human C3a receptor in human U937 cells assessed as induction of intracellular calcium release at 10 uM; format: functional, cell-based; conditions: U-937

For `CC(C)C[C@H](NC(=O)[C@@H](N)Cc1ccccc1)C(=O)N[C@H](C(=O)N[C@@H](CC1CCCCC1)C(=O)N[C@@H](C)C(=O)N[C@@H](CCCNC(=N)N)C(=O)O)[C@@H](C)O`, the Selectivity ratio (Homo sapiens) was over 100, the Activity [1] was “inactive” and the IC50 [2] was 240 nM. The IC50 [3] was 238 nM, the Activity [4] was “inactive” and the Activity [5] was “inactive”.

With `N=C(N)NCCC[C@H](NC(=O)COCC(c1ccccc1)c1ccccc1)C(=O)O` the Activity [6] was “inactive”, the Activity [1] was “inactive” and the IC50 [2] was 1300 nM. The IC50 [3] was 140 nM and the Activity [5] was “inactive”.
